Experimental findings from patent US4482566A, “Substituted aminoalkylbenzene type lower acylamides” (Teikoku Hormone Mfg. Co., Ltd., priority 1979, dated 1984) are described below.

In one data set the target is T1, histamine H2 receptor (Cavia porcellus, UniProt P47747).
T1 construct: spontaneously beating atria of guinea pig in vitro; from tissue; host or cells: spontaneously beating guinea pig atria
Nature of the data set: Blocking action on histamine H2 receptor in vitro (positive chronotropic effect of histamine in spontaneously beating atria). Particulars: negative logarithm of concentration required to shift dose-response of histamine to the right by 2-fold; guinea pig atria; read-out: pA2 (converted). Here is the method: Histamine H2 receptor blocking activity of the compound was determined by obtaining the dose-response relationship of the positive chronotropic effect of histamine in spontaneously beating atria of guinea pig in vitro, in the absence and in the presence of a test compound. […] E. J. Ariens. Molecular Pharmacology, vol. 1, 153-156 (1964), Academic Press, New York).

The nature of the next data set: Acute toxicity. To be noted: mouse, in vivo, po, SLC-ddY male mice of aging 4 weeks. Here is the method:
To test the acute toxicity of each compound (A), (B) and (C), LD50 was determined using SLC-ddY male mice of aging 4 weeks.

The test system of data set [1] is gastric acid secretion induced by histamine. In words: Inhibitory action against the gastric acid secretion induced by histamine (perfused stomach, anesthetized rats). To be noted: Rattus norvegicus, 1 h; male Donryu rats, urethane anesthesia; compound injected before histamine dihydrochloride 5 mg/kg i.v.; acid output during 60 min; read-out: ED50, dose to inhibit 50% of acid output of the control. The class given is in vivo. The procedure: Inhibitory action of a test compound against the gastric acid secretion induced by histamine was determined according to the method of Ghosh and Schild (M. N. Ghosh and H. O. Schild: Br. J. Pharmacol. 13, 54, 1958) with some modifications. Male Donryu rats weighing 200±10 g were deprived of food for 24 hr prior to the experiments, with water ad lib. Under the anesthesia with 1.2 g/kg of subcutaneous urethane, trachea and cervical vein were cannulated. With midline opening, the duodenum immediately below the junction with pylorus was incised and after the stomach was flashed with saline for several times, the polyethylene tube was inserted into the pylorus through the incision, and ligated with surrounding tissues keeping the blood vessels intact. The polyvinyl tube was inserted into the mouth up to the forestomach through the esophagus and ligated at the cervical level. Saline solution kept at 35° C. was perfused through the polyvinyl tube at the rate of 1 ml/min, and the perfusate was collected through the polyethylene tube of the pylorus. The perfusate was collected for 30 min and was titrated by 0.01N NaOH with phenolphthalein as an indicator to obtain a total acid output(mEq). Subsequently, the perfusate was collected for every 30 min. After the acid output became constant, the stomach was perfused for further 60 min. After that, in the control group, 0.1 ml of saline per 100 g of body weight was intravenously injected, 10 min later 5 mg/kg of histamine dihydrochloride was injected intravenously. The perfusate for 60 min after histamine injection was collected and determined the acidity. The amount of acid output during 60 min after histamine injection subtracted that for 60 min before histamine was regarded as the acid output response to histamine. In the test groups, following the injection of three compounds (A), (B) and (C) instead of saline, 5 mg/kg of histamine dihydrochloride was injected and acid output was determined. Decreased ratio of the acid output to the control was calculated as the response to the test compound. […]

T1 sequence (P47747 whole entry): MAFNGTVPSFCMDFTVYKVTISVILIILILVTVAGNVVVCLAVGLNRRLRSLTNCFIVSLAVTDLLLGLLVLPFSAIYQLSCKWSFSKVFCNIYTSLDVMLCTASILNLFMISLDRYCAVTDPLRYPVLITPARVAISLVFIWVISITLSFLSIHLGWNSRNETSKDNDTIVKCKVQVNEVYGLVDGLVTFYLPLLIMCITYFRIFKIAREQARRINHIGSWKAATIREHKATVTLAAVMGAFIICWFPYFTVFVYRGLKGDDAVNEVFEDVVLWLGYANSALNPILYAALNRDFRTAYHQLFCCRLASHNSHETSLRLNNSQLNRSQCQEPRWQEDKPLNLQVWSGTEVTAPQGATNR

On to `O=C(NCCCOc1cccc(CN2CCCC2)c1)c1cccnc1` [Example 1], for which the Kb at histamine H2 receptor was 129 nM.

In the data set “Acute toxicity”, `O=CNCCCOc1cccc(CN2CCCC2)c1` [compound 6] came in with an LD50 greater than 1000 mg/kg. The ED50 in data set [1] came out at 0.84 mg/kg.

For `O=CNCCCOc1cccc(CN2CCCC2)c1` [Example 6], the Kb at histamine H2 receptor was 170 nM.

Take `O=C(NCCCOc1cccc(CN2CCCC2)c1)c1cc(-c2ccccc2)on1` [Example 8]: on histamine H2 receptor, the Kb is 186 nM.

As for `COC(=O)c1ccc(C(=O)NCCCOc2cccc(CN3CCCC3)c2)cc1` [Example 5], the Kb at histamine H2 receptor is 81.3 nM.

Regarding `CC(=O)NCCCOc1cccc(CN2CCCC2)c1` [compound 4, 3-(3-acetamidopropoxy)-1-(1-pyrrolidinylmethyl)benzene], in the data set “Acute toxicity”, the LD50 is greater than 1000 mg/kg. The ED50 in data set [1] was found to be 1.65 mg/kg.

`O=C(NCCCOc1cccc(CN2CCCC2)c1)c1cccnc1` [A] gave an LD50 in “Acute toxicity” greater than 1000 mg/kg. In addition, the ED50 in data set [1] is 1.25 mg/kg.

For the compound `O=C(NCCCOc1cccc(CN2CCCC2)c1)c1ccc([N+](=O)[O-])cc1` [Example 7], at histamine H2 receptor, the Kb was 100 nM.

For the compound `O=C(NCCCOc1cccc(CN2CCCC2)c1)c1cccs1` [Example 3], the Kb on histamine H2 receptor is 138 nM.

With `O=C(NCCCOc1cccc(CN2CCCC2)c1)c1ccccc1` [Example 2], the Kb at histamine H2 receptor is 191 nM.

Regarding `CC(=O)NCCCOc1cccc(CN2CCCC2)c1` [Example 4], the Kb on histamine H2 receptor was 195 nM.

As a reminder, the LD50 is the dose at which mortality reaches 50%. Low readings indicate greater toxicity, high ones lower toxicity. The ED50 is the dose that gives a 50% effect, or the effect in half of the subjects.
